Assay results as given in PMC8820783, “In vitro and in silico studies on clinically important enzymes inhibitory activities of flavonoids isolated from Euphorbia pulcherrima” (Annals of Medicine, 2022).
Where two headings read alike, the source gives them in different places.

What was measured:
[1] = target: T1, mushroom tyrosinase (Agaricus bisporus, UniProt C7FF04); assay: Tyrosinase inhibition (L-DOPA, 96-well); format: biochemical; conditions: L-DOPA substrate, read-out: IC50 ± S.E. (tyrosinase)
T1 construct: purchased Sigma-Aldrich T3824; host or cells: mushroom (natural source)
Procedure: According to this method, the tested compounds (10 µL) was carefully transfer into a 96-well microplate, mixed with 10 µL mushroom tyrosinase and buffer solution 60 µL. After incubation, 20 µL of 3,4-dihydroxy-l-phenylalanine (L-DOPA) in phosphate buffer was blended, and some amount of dopachrome was added into the reaction mixture. The effect was checked by spectrophotometry at 450 nm with (OD480) (optical density, OD). EZ-Fit software was used to measure the IC50 values in µM. The % inhibition was calculated by using following formula. Percent inhibition=100−OD test well/OD control×100

[2] = target: Jack bean (Canavalia ensiformis) urease (Canavalia ensiformis, UniProt P07374); assay: biochemical
[3] = target: phosphodiesterase I from Crotalus adamanteus venom (Crotalus adamanteus, UniProt J3SEZ3); assay: biochemical
[4] = target: bovine serum albumin (BSA) glycation by MGO (Bos taurus, UniProt P02769); assay: Anti-glycation inhibition (BSA-MGO fluorescence); format: biochemical; conditions: 37 °C, 9 days; for IC50: read-out: IC50 ± S.E. (antiglycation)
Procedure: After incubation, glycation of protein was measured using fluorescence (emission, 440 nm; excitation, 330 nm), against a blank, and using a microtiter plate spectrophotometer (Spectra Max, Molecular Devices, Sunnyvale, CA).

Sequence of bovine serum albumin (BSA) glycation by MGO (P02769 25-607): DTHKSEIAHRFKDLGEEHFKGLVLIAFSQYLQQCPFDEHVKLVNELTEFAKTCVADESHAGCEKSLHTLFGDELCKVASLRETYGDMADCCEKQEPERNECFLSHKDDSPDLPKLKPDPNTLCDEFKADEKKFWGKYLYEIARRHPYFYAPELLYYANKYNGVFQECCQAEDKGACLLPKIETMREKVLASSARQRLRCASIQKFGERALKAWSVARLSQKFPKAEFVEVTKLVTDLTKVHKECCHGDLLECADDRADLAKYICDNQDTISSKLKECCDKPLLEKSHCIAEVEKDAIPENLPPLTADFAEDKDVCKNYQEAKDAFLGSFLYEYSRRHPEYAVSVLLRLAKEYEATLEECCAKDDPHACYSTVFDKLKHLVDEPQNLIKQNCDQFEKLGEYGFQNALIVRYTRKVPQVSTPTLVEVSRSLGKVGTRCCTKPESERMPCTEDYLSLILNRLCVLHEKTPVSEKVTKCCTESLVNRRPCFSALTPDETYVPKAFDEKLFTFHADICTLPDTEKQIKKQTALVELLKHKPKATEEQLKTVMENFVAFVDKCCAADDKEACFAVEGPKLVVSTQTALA
Sequence of phosphodiesterase I from Crotalus adamanteus venom (J3SEZ3 24-851 limits assumed): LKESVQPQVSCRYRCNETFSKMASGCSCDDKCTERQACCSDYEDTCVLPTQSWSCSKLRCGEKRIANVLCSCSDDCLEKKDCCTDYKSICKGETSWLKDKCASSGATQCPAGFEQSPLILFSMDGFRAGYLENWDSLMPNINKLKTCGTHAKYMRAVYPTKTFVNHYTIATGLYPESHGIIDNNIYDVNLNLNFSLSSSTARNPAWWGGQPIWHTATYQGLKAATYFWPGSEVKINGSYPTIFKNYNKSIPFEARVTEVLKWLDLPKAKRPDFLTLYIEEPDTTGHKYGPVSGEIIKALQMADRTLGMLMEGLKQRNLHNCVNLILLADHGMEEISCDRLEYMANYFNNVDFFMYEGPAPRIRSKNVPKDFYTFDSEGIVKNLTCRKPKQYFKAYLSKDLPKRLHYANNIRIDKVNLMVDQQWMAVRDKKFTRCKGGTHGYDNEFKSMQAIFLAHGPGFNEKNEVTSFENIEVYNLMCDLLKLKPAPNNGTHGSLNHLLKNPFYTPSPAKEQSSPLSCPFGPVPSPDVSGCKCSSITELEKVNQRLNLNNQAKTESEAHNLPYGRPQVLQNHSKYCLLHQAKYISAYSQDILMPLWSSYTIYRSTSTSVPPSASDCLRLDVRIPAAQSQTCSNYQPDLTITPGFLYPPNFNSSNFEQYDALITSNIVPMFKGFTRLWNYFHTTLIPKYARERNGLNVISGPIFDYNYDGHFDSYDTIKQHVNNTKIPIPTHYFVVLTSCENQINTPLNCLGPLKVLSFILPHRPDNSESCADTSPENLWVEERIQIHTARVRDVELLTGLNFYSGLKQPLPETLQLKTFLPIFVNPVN
Sequence of Jack bean (Canavalia ensiformis) urease (P07374 whole entry, looked up): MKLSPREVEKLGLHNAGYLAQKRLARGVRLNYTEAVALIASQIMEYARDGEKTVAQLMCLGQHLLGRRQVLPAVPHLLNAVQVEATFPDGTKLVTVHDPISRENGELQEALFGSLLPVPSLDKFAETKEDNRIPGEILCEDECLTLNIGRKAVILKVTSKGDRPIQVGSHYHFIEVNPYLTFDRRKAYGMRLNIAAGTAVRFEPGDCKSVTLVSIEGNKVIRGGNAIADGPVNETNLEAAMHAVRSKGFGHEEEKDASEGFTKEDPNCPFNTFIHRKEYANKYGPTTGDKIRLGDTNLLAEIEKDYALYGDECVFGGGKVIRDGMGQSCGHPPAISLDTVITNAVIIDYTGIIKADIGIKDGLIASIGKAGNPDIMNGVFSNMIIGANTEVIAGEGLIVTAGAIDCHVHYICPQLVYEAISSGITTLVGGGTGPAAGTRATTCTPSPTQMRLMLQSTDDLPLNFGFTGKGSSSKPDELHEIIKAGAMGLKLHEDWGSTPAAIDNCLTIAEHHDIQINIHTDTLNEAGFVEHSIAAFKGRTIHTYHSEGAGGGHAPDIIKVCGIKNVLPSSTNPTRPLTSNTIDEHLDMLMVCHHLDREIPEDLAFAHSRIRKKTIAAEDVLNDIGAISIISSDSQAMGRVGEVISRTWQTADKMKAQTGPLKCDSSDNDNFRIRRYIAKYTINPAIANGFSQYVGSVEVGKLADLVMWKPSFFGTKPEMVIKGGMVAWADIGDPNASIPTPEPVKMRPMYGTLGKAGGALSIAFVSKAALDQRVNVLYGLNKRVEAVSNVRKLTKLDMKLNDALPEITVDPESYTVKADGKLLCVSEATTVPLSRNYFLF
T1 sequence (C7FF04 1-392 limits assumed): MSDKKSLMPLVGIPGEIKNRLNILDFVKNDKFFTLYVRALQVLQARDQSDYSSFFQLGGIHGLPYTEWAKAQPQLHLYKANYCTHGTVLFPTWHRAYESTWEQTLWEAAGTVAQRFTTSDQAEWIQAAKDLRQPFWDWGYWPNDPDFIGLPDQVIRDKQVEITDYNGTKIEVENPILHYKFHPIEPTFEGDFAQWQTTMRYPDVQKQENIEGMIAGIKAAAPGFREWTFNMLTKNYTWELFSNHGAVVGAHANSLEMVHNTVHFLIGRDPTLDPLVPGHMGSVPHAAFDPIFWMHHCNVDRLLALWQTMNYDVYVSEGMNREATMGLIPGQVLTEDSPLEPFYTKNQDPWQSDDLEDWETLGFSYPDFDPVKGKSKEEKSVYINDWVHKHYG

SMILES | IC50 [1] [µM] | IC50 [2] [µM] | IC50 [3] [µM] | IC50 ± S.E. (antiglycation) [4] | IC50 [4] [µM] | IC50 ([3]; table head prints no unit, read-out: IC50 ± S.E.M. (phosphodiesterase)) [µM]
COc1cc(-c2oc3cc(O)c(OC)c(O)c3c(=O)c2O)ccc1O [compound 1, 3,5,7-trihydroxy-2-(4-hydroxy-3-methoxyphenyl)-6-methoxy-4H-chromen-4-one] | 48.7 ± 2.19 | 15.3 ± 2.13 | 148.7 ± 1.09 | inactive | – | –
COc1c(O)cc2oc(-c3ccc(O)c(O)c3)c(O)c(=O)c2c1O [compound 2, 2-(3,4-dihydroxyphenyl)-3,5,7-trihydroxy-6-methoxy-4H-chromen-4-one] | 74.8 ± 1.79 | 19 ± 2.43 | 95.2 ± 4.14 | – | 244.8 ± 1.79 | –
C[C@@H]1O[C@@H](OC[C@H]2O[C@@H](Oc3c(-c4ccc(O)c(O)c4)oc4cc(O)cc(O)c4c3=O)[C@H](O)[C@@H](O)[C@@H]2O)[C@H](O)[C@H](O)[C@H]1O [rutin, Rutin, reference compound] | – | – | – | – | 295 ± 3.14 | –
O=C(O)CN(CCN(CC(=O)O)CC(=O)O)CC(=O)O [EDTA, reference compound] | – | – | – | – | – | 265 ± 2.24
